The values that follow come from PMC8550792, “Evolution of kinase polypharmacology across HSP90 drug discovery” (Cell Chemical Biology, 2021).

Common to all, as to assay: biochemical
Holding throughout (type): biochemical

Assay [1] has as its target T1, 382 unique human kinases (Homo sapiens, UniProt Q9NY57).
T1 construct: purchased Reaction Biology (HotSpot contract assay)
Particulars: kinase STK32B/YANK2, compound 10 uM; for remaining activity at 10 µM: read-out: % Enzyme Activity (relative to DMSO controls).

Assay [2] has as its target T2, 382 unique human kinases (Homo sapiens, UniProt P00533, C797S).
T2 construct: purchased Reaction Biology (HotSpot contract assay)
The following applies: EGFR (C797S), 10 uM; for remaining activity at 10 µM: read-out: % Enzyme Activity (relative to DMSO controls).

Assay [3] concerns the target T3, 382 unique human kinases (Homo sapiens, UniProt P20794).
T3 construct: purchased Reaction Biology (HotSpot contract assay)
T3 sequence (P20794 1-623): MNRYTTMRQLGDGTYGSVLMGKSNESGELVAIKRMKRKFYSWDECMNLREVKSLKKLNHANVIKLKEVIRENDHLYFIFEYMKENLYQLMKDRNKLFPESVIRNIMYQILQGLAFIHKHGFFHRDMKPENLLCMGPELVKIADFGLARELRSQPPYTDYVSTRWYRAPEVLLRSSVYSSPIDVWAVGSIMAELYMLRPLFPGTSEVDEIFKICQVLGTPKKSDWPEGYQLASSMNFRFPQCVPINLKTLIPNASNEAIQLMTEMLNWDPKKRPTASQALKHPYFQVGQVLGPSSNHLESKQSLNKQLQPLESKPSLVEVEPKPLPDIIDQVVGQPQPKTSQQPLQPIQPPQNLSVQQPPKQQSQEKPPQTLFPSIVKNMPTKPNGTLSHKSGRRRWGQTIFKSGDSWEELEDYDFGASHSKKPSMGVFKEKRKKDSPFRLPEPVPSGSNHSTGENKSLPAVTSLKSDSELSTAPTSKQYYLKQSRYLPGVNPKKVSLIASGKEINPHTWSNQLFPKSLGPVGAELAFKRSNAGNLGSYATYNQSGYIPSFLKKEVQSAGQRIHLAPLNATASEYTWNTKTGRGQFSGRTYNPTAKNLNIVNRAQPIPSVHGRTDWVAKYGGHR
Particulars: kinase MAK, compound 10 uM; for remaining activity at 10 µM: read-out: % Enzyme Activity (relative to DMSO controls).

Assay [4] addresses T4, 382 unique human kinases (Homo sapiens, UniProt Q8WXR4).
T4 construct: purchased Reaction Biology (HotSpot contract assay)
T4 sequence (Q8WXR4 1-1341): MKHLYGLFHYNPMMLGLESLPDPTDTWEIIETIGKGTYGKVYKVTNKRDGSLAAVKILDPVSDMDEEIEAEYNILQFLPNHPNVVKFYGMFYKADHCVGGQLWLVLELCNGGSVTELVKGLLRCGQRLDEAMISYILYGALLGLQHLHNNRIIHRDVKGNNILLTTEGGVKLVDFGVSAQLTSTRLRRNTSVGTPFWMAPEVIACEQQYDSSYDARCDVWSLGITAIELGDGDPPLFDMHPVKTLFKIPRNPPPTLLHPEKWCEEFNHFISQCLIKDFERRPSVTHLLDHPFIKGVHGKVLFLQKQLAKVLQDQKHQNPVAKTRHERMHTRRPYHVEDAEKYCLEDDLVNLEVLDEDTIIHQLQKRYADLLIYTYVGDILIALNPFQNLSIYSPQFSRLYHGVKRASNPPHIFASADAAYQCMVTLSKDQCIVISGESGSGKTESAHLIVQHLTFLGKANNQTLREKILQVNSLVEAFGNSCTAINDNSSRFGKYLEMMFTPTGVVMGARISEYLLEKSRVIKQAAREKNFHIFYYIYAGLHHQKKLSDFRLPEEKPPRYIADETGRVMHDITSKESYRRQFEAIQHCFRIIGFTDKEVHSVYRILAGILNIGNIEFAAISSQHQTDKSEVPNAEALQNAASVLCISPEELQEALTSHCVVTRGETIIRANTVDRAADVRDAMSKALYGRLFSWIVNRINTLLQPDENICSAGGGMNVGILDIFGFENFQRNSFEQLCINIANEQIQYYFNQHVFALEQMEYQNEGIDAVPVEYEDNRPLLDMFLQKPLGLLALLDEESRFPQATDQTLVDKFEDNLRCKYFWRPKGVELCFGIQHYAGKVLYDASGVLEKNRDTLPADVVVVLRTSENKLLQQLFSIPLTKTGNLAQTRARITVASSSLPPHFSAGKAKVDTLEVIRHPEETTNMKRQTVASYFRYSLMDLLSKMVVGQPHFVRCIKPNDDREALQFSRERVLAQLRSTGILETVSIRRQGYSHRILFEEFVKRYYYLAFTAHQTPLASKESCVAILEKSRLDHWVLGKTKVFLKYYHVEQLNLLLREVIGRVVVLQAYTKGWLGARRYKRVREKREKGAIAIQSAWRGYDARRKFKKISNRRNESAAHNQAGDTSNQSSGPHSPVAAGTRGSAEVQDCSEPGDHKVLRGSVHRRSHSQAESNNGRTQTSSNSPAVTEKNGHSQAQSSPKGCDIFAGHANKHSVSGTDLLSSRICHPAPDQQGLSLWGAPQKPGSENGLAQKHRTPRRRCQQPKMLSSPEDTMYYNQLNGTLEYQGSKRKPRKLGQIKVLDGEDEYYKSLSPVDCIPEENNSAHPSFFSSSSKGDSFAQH
Particulars: kinase MYO3b, compound 10 uM; for remaining activity at 10 µM: read-out: % Enzyme Activity (relative to DMSO controls).

In assay [5] the target is T5, 382 unique human kinases (Homo sapiens, UniProt P00519, Y253H).
T5 construct: purchased Reaction Biology (HotSpot contract assay)
The following applies: ABL1 (Y253H), [ATP] 10 µM, compound 10 uM; for remaining activity at 10 µM: read-out: % Enzyme Activity (relative to DMSO controls).

The target in assay [6] is T6, 382 unique human kinases (Homo sapiens, UniProt P27448).
T6 construct: purchased Reaction Biology (HotSpot contract assay)
The following applies: MARK3, 10 uM; for remaining activity at 10 µM: read-out: % Enzyme Activity (relative to DMSO controls).

Assay [7] addresses T7, 382 unique human kinases (Homo sapiens, UniProt P00519).
T7 construct: purchased Reaction Biology (HotSpot contract assay)
Particulars: ABL1, [ATP] 40 µM.

Assay [8] has as its target T8, 382 unique human kinases (Homo sapiens, UniProt O75914).
T8 construct: purchased Reaction Biology (HotSpot contract assay)
Particulars: PAK3, 10 uM; for remaining activity at 10 µM: read-out: % Enzyme Activity (relative to DMSO controls).

The target of assay [9] is T9, 382 unique human kinases (Homo sapiens, UniProt P28482).
T9 construct: purchased Reaction Biology (HotSpot contract assay)
The following applies: ERK2/MAPK1, 10 uM; for remaining activity at 10 µM: read-out: % Enzyme Activity (relative to DMSO controls).

Assay [10] concerns the target T10, 382 unique human kinases (Homo sapiens, UniProt P10721, D816V).
T10 construct: purchased Reaction Biology (HotSpot contract assay)
Particulars: c-Kit (D816V), [ATP] 10 µM, compound 10 uM; for remaining activity at 10 µM: read-out: % Enzyme Activity (relative to DMSO controls).

The target in assay [11] is T11, 382 unique human kinases (Homo sapiens, UniProt P08581, Y1230C).
T11 construct: purchased Reaction Biology (HotSpot contract assay)
The following applies: c-MET (Y1230C), 10 uM; for remaining activity at 10 µM: read-out: % Enzyme Activity (relative to DMSO controls).

SMILES strings stand for the structures.

T1 sequence (Q9NY57 whole entry): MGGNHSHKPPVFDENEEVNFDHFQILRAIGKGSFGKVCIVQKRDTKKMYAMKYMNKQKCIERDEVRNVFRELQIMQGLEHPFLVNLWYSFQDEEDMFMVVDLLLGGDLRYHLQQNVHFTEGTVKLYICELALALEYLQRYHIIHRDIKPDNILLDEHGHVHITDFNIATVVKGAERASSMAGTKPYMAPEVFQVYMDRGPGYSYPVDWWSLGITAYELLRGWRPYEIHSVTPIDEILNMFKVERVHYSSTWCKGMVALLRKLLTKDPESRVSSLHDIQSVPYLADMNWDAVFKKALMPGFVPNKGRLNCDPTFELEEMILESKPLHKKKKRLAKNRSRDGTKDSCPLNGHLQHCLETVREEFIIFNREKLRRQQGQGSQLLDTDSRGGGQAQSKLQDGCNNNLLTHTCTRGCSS
T5 sequence (P00519 whole entry Y253H): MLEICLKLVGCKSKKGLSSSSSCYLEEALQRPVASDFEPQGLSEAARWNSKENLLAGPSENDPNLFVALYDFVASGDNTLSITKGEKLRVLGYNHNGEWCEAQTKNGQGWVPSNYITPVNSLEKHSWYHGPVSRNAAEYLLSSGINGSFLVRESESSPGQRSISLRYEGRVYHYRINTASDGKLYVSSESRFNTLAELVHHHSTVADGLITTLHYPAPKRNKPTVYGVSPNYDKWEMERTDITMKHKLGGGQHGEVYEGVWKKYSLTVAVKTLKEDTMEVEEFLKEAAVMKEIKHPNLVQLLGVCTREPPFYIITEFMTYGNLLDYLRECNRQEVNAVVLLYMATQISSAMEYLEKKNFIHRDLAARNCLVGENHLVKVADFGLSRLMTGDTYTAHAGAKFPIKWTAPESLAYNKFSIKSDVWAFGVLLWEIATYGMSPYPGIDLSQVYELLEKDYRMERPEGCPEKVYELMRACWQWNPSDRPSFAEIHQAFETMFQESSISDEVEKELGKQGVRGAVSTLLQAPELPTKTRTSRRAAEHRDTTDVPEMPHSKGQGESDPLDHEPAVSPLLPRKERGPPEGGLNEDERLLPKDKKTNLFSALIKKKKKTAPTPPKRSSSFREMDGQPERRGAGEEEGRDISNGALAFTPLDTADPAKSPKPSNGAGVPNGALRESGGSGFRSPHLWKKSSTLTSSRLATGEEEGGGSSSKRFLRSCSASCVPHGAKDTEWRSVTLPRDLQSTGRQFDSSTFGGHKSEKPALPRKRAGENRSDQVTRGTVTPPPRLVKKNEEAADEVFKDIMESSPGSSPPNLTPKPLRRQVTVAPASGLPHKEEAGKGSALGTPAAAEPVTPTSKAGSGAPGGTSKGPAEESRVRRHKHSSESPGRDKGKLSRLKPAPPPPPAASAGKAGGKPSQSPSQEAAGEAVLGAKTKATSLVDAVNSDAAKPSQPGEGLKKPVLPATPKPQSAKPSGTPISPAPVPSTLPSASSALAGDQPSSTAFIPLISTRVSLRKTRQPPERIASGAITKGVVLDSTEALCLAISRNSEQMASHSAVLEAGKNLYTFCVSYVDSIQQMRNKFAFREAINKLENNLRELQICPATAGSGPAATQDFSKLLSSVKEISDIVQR
T8 sequence (O75914 whole entry): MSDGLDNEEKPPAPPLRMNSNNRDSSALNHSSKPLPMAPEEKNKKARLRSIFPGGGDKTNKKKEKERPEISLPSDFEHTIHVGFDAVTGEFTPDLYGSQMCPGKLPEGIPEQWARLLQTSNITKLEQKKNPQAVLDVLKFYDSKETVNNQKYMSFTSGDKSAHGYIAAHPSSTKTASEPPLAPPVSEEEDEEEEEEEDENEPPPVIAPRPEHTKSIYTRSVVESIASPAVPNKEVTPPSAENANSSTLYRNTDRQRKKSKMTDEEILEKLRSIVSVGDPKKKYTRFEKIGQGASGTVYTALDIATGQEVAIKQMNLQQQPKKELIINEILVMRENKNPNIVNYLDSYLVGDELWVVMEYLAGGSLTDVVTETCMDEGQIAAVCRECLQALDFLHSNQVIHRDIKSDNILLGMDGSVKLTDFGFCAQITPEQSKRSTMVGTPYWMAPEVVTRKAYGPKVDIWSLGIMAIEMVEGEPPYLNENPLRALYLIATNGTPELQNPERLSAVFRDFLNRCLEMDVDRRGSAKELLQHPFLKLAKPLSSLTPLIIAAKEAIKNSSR
T6 sequence (P27448 whole entry): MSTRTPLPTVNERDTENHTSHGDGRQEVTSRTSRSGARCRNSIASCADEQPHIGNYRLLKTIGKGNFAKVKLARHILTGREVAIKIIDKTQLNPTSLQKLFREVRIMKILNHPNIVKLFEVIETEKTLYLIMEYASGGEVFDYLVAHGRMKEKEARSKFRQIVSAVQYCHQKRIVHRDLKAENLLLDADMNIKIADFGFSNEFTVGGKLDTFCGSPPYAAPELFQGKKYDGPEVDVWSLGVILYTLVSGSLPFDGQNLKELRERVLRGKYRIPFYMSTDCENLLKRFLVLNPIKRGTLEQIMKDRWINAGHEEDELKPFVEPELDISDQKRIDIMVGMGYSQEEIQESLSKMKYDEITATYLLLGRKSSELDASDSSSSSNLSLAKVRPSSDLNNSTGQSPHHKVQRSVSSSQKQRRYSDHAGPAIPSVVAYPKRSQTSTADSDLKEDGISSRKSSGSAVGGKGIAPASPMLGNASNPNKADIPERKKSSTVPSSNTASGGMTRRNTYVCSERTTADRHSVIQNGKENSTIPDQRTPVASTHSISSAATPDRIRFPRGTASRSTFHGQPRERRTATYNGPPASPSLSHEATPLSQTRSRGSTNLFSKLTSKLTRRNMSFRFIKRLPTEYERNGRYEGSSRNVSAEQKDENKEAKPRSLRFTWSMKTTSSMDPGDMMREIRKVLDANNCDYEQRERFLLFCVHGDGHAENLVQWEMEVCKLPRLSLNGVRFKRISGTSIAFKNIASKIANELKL
T9 sequence (P28482 whole entry): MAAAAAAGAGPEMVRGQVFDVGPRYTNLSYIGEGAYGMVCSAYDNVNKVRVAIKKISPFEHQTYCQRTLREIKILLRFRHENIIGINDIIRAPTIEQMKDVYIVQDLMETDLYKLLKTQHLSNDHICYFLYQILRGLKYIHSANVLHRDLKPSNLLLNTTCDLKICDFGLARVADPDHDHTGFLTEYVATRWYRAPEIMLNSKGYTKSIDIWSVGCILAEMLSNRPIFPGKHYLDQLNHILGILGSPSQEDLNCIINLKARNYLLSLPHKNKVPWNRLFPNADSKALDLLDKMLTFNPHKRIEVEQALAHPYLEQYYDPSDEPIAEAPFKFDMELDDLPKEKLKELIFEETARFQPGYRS
T10 sequence (P10721 26-976 D816V): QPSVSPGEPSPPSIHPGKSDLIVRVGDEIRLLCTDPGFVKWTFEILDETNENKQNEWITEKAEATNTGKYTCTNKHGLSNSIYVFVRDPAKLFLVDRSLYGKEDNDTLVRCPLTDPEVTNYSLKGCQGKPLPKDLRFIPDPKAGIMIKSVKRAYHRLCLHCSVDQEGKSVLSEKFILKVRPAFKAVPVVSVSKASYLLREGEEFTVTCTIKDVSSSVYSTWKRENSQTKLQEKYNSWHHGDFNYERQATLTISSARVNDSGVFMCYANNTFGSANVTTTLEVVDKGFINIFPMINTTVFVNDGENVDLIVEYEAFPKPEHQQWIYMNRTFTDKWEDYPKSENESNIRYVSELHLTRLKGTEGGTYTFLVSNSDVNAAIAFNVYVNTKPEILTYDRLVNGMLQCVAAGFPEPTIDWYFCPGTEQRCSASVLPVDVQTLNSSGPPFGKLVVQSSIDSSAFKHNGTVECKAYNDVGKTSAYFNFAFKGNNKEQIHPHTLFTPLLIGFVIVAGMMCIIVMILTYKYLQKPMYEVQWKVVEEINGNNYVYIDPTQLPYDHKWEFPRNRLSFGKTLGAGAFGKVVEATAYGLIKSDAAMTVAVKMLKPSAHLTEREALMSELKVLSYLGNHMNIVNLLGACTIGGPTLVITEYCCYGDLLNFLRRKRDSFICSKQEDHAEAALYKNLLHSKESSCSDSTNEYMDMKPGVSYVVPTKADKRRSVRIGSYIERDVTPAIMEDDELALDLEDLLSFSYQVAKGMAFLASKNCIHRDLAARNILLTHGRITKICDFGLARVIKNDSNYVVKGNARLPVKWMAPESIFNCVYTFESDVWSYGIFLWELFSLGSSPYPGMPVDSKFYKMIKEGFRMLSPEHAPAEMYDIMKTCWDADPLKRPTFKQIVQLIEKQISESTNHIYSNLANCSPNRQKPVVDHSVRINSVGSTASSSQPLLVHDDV
T7 sequence (P00519 whole entry): as the sequence (P00519 whole entry Y253H) above, with H253Y counted along it

In the case of `CC(C)c1cc(-c2n[nH]c(=O)n2-c2ccc3c(ccn3C)c2)c(O)cc1O` [Ganetespib (STA9090)], the remaining activity at 10 µM was found to be 107% in assay [1], 70.9% in [2], 86.4% in assay [3] and 88.2% in assay [4].

With `CC(C)c1cc(-c2n[nH]c(=O)n2-c2ccc3c(ccn3C)c2)c(O)cc1O` [Ganetespib], the remaining activity at 10 µM came out at 9.65% in assay [5]; 100% in assay [6]; 98.1% in [8]; 106% in assay [9]; 30.4% in assay [10]; 97% in assay [11]. Moreover, the remaining activity at 1 µM in [7] (compound 1 uM, read-out: % Enzyme Activity (relative to DMSO controls)) is 18.3%.

For `CCNC(=O)c1noc(-c2cc(C(C)C)c(O)cc2O)c1-c1ccc(CN2CCOCC2)cc1` [Luminespib (AUY-922)], the “% Enzyme Activity (relative to DMSO controls)” value in assay [1] is reported as 88.50%; in assay [2], 99.85%; in assay [3] it was 94.57%; in assay [4], 111.45%. Besides, the remaining activity at 10 µM turned out to be 88.8% in assay [1], 103% in assay [2], 94.7% in assay [3] and 113% in assay [4].

With `CCNC(=O)c1noc(-c2cc(C(C)C)c(O)cc2O)c1-c1ccc(CN2CCOCC2)cc1` [Luminespib], the “% Enzyme Activity (relative to DMSO controls)” value in assay [5] was found to be 6.34%; in assay [6], 108.05%; in [7] (compound 10 uM) it was 6.22%; in assay [8] it was 107.82%; in assay [9], 93.52%; in [10], 67.99%. In [11], the “% Enzyme Activity (relative to DMSO controls)” value amounted to 102.31%. In addition, the remaining activity at 10 µM came out at 6.94% in [5]; 111% in assay [6]; 6.93% in assay [7] (compound 10 uM, read-out: % Enzyme Activity (relative to DMSO controls)); 108% in assay [8]; 94.6% in assay [9]; 68.9% in assay [10]. Also, the remaining activity at 10 µM in assay [11] worked out at 103%.
